Measured values: US5399696A, “Isoquinolinyl compounds which are intermediates” (Eli Lilly and Company, priority 1993, dated 1995)

What was measured:
[1] = tested on: kainic acid (KA) receptor; experiment: Antagonism of kainate-induced depolarization of rat cortical wedges; assay type: cell-based; conditions: kainate 10 μM, mean ± standard error (n = 3)
Method: (§1) The depolarization of rat cortical wedges was used to test the selectivity and potency of the formula I compounds as AMPA antagonists using a technique similar to that described by Harrison and Simmonds. Harrison and Simmonds, Bri. J. Pharmacol., 84, 381-391 (1984). Generally, 4-ml aliquots of NMDA (40 μM), AMPA (40 μM), and kainate (10 μM) were superfused (2 ml/min.) on the grey matter at intervals of 15-20 minutes until stable responses were attained. The tissue was then exposed for 15 minutes to various concentrations of the formula I compounds before retesting the agonists. The IC50 values were calculated from linear regression of log dose-response curves, each point the mean of at least three observations on separate slices from more than one animal.

[2] = molecular target: kainic acid (KA) receptor; experiment: Radioligand binding: tritiated kainate binding with washed synaptosomal membranes from the rat forebrain; conditions: tritiated kainate 5 nM, pH 7.4, mean ± standard error (n = 3), values marked ^c single experiment
Method: (§2) The formula I compounds were tested for their ability to inhibit NMDA, AMPA, and kainic acid receptor binding to rat membranes in a radioligand binding assay using [^3 H]CGS19755, [^3 H]AMPA, and [^3 H]KA. For all radioligand binding assays, male Sprague-Dawley rats were used. […] Non-specific binding was determined using 10 μM L-glutamate. Samples were incubated in an ice-bath for 30 minutes, and bound ligand was separated from the free ligand by rapid filtration through WHATMAN GF/B glass fiber filters. Murphy et al, British J. Pharmacol., 95, 932-938 (1988). Kainate binding was performed using washed synaptosomal membranes from the rat forebrain as described by Simon et al. Simon et al, J. Neurochem., 26, 141-147 (1976). Tritiated kainate (5 nM) was added to 50 mM Tris-HCl buffer (pH 7.4 at 4° C.) containing 200-300 μg/ml of tissue protein. Samples were incubated for 30 minutes in an ice-bath, then rapidly filtered using a Brandel cell harvester and WHATMAN GF/C filters. Filters were washed twice with 3 ml of cold buffer. Non-specific binding was determined using 100 μM non-labeled kainate. The binding of [^3 H]AMPA (5 nM) was conducted with crude membranes of rat forebrain in the presence of 100 mM KSCN as described by Nielson et al. Nielson et al, Eur. J. Med. Chem. Chim. Ther., 21, 433-437 (1986). Non-specific binding was determined with 10 μM non-labeled AMPA. The concentration of the formula I compound that inhibited 50% binding (IC50, mean ±standard error, n=3) as calculated by linear regression of displacement data transformed to the Hill equation as described by Bennett. Bennett, Neurotransmitter Receptor Binding, 57-90 (1978).

[3] = molecular target: NMDA receptor; experiment: Radioligand binding: displacement of [^3 H]CGS19755 from synaptosomal membranes of rat forebrain (NMDA receptor affinity); conditions: [^3 H]CGS19755 10 nM, mean ± standard error (n = 3), values marked ^c single experiment
Method: as §2

[4] = molecular target: AMPA receptor; experiment: Radioligand binding: [^3 H]AMPA binding with crude membranes of rat forebrain
Method: as §2

[5] = tested on: AMPA receptor; experiment: Antagonism of AMPA-induced depolarization of rat cortical wedges; assay type: cell-based
Method: as §1

[6] = tested on: NMDA receptor; experiment: Antagonism of NMDA-induced depolarization of rat cortical wedges; assay type: cell-based; conditions: NMDA 40 μM, mean ± standard error (n = 3), read-out: IC50 NMDA, antagonism of cortical wedge depolarization
Method: as §1

[7] = tested on: AMPA receptor; conditions: cited: LaPeillet et al.; cited from earlier work
[8] = tested on: AMPA receptor; conditions: cited: Sheardown et al.; Buchan et al.; LePeillet et al.; cited from earlier work
[9] = Table II, enantiopure, [^3 H]AMPA 5 nM, 100 mM KSCN, mean ± standard error (n = 3), values marked ^c single experiment, read-out: IC50 AMPA, receptor binding
[10] = Table I, racemic, [^3 H]AMPA 5 nM, 100 mM KSCN, mean ± standard error (n = 3), values marked ^c single experiment, read-out: IC50 AMPA, receptor binding
[11] = text summary of Table I, racemic, read-out: selectively displaced ^3 H-AMPA with IC50 values
[12] = Table III; cortical wedge; racemic
[13] = Table III; racemic; AMPA 40 μM; mean ± standard error (n = 3); read-out: IC50 AMPA, antagonism of cortical wedge depolarization

For O=C(O)[C@@H]1C[C@H]2C[C@@H](CSc3nn[nH]n3)CC[C@H]2CN1 [Compound 23], the “IC50 KA, antagonism of cortical wedge depolarization” value (from here on “IC50 KA, antagonism”) ([1]; Table IV, enantiopure) was > 31.6 µM, the “IC50 KA, receptor binding” value ([2]; Table II, enantiopure) was 12.5 µM and the IC50 ([3]; Table II, enantiopure) was 16.3 µM. For the same compound, the IC50 [4, 9] was 0.58 ± 0.03 µM, the IC50 ([5]; Table IV; enantiopure; AMPA 40 μM; mean ± standard error (n = 3); read-out: IC50 AMPA, antagonism of cortical wedge depolarization) was 1.35 ± 0.35 µM and the IC50 ([6]; Table IV, enantiopure) was 22.9 ± 3.8 µM.
For CC1=NN=C(c2ccc(N)cc2)c2cc3c(cc2C1)OCO3 [GKYI 52466], the “neuroprotection in rat global ischemia (in words)” value [7] is given as “effective neuroprotective agent in rat global ischemia models”.
With O=C(O)[C@@H]1C[C@H]2C[C@H](CSc3nnn[nH]3)CC[C@H]2CN1 (racemic) [Compound 5, (3SR,4aRS,6RS,8aRS)-6-[2-(1(2)H-Tetrazole-5-yl)-2-thiaethyl]decahydroisoquinoline-3-carboxylic Acid] the “IC50 KA, antagonism” value ([1]; Table III, racemic) was > 100 µM, the “IC50 KA, receptor binding” value ([2]; Table I, racemic) was 37.3 ± 2.3 µM and the IC50 ([3]; Table I, racemic) was 47.9 ± 3.9 µM. The IC50 [4, 10] was 4.9 ± 0.4 µM, the IC50 [4, 11] was < 15 µM and the “selective AMPA receptor antagonism (in words)” value [5, 12] was “selective AMPA receptor antagonists”. For the same compound, the IC50 [5, 13] was 6.1 ± 1.5 µM and the IC50 ([6]; Table III, racemic) was > 100 µM.
For O=C(O)[C@@H]1C[C@H]2C[C@@H](C=Cc3nsnc3O)CC[C@H]2CN1 (racemic) [Compound 20, (3SR,4aRS,6SR,8aRS)-6-[2-(3-Hydroxy-1,2,5-thiadiazole-4-yl)ethenyl]decahydroisoquinoline-3-carboxylic Acid], the “IC50 KA, antagonism” value ([1]; Table III, racemic) was > 100 µM, the “IC50 KA, receptor binding” value ([2]; Table I, racemic) was > 100 µM and the IC50 ([3]; Table I, racemic) was > 100 µM. The IC50 [4, 10] was 83.4 µM, the IC50 [5, 13] was 100 µM and the IC50 ([6]; Table III, racemic) was > 100 µM.
For O=C(O)[C@@H]1C[C@H]2C[C@@H](CCc3nn[nH]n3)CC[C@H]2CN1 [Compound 21, (3S,4aR,6R,8aR)-(-)-6-[2-(1(2)H-Tetrazole-5-yl)ethyl]decahydroisoquinoline-3-carboxylic Acid], the “IC50 KA, antagonism” value ([1]; Table IV, enantiopure) was < 100 µM, the “IC50 KA, receptor binding” value ([2]; Table II, enantiopure) was 28.1 ± 1.7 µM and the IC50 ([3]; Table II, enantiopure) was 12.1 ± 2 µM. For the same compound, the IC50 [4, 9] was 1.35 ± 0.13 µM, the IC50 ([5]; read-out: IC50 AMPA, antagonism of cortical wedge depolarization; Table IV; enantiopure; AMPA 40 μM; mean ± standard error (n = 3)) was 1.78 ± 0.23 µM and the IC50 ([6]; Table IV, enantiopure) was < 100 µM.
With O=C(O)[C@@H]1C[C@H]2C[C@@H](COCc3nnn[nH]3)CC[C@H]2CN1 (racemic) [Compound 7, (3SR,4aRS,6SR,8aRS)-6-[(1(2)H-Tetrazole-5-yl)methoxymethyl]decahydroisoquinoline-3-carboxylic Acid] the “IC50 KA, antagonism” value ([1]; Table III, racemic) was > 100 µM, the “IC50 KA, receptor binding” value ([2]; Table I, racemic) was > 10 µM and the IC50 ([3]; Table I, racemic) was > 10 µM. The IC50 [4, 10] was > 10 µM, the IC50 [5, 13] was 16 ± 1.4 µM and the IC50 ([6]; Table III, racemic) was > 100 µM.
With O=C(O)[C@@H]1C[C@H]2C[C@@H](CS(=O)(=O)c3ncn[nH]3)CC[C@H]2CN1 (racemic) [Compound 15, (3SR,4aRS,6SR,8aRS)-6-[(1(2-4)H-1,2,4-Triazole-5-yl)sulfonylmethyl]decahydroisoquinoline-3-carboxylic Acid] the “IC50 KA, antagonism” value ([1]; Table III, racemic) was “Ca. 10 μM”, the “IC50 KA, receptor binding” value ([2]; Table I, racemic) was > 100 µM and the IC50 ([3]; Table I, racemic) was > 100 µM. The IC50 [4, 10] was 1.67 ± 0.14 µM, the IC50 [4, 11] was < 15 µM and the “selective AMPA receptor antagonism (in words)” value [5, 12] was “selective AMPA receptor antagonists”. The IC50 [5, 13] was 2.16 ± 0.79 µM and the IC50 ([6]; Table III, racemic) was > 100 µM.
In the case of O=C(O)[C@@H]1C[C@H]2C[C@@H](CCc3cc(O)no3)CC[C@H]2CN1 (racemic) [Compound 13, (3SR,4aRS,6RS,8aRS)-6-[2-(3-Hydroxyisoxazole-5-yl)ethyl]decahydroisoquinoline-3-carboxylic Acid], the “IC50 KA, antagonism” value ([1]; Table III, racemic) is reported as > 100 µM, the “IC50 KA, receptor binding” value ([2]; Table I, racemic) is reported as > 100 µM and the IC50 ([3]; Table I, racemic) is reported as > 100 µM. For the same compound, the IC50 [4, 10] was 13.8 ± 1.24 µM, the IC50 [4, 11] was < 15 µM and the “selective AMPA receptor antagonism (in words)” value [5, 12] was “selective AMPA receptor antagonists”. The IC50 [5, 13] was 16.5 ± 2.7 µM and the IC50 ([6]; Table III, racemic) was > 100 µM.
In the case of NS(=O)(=O)c1cccc2c1c([N+](=O)[O-])cc1nc(O)c(O)nc12 [NBQX, 2,3-dihydroxy-6-nitro-7-sulfamoylbenzo[f]quinoxaline], the “prevention of global and focal ischemic damage (in words)” value [8] is listed as “effective in preventing global and focal ischemic damage”.
With O=C(O)[C@@H]1C[C@H]2C[C@@H](C(Cc3nn[nH]n3)c3ccccc3)CC[C@H]2CN1 (stereo partly drawn) [Compound 19, (3SR,4aRS,6RS,8aRS)-6-[2-(1(2)H-Tetrazole-5-yl)-1-phenylethyl]decahydroisoquinoline-3-carboxylic Acid] the “IC50 KA, antagonism” value ([1]; Table III, racemic) was 23.6 ± 5.6 µM, the “IC50 KA, receptor binding” value ([2]; Table I, racemic) was > 100 µM and the IC50 ([3]; Table I, racemic) was 13.8 µM. For the same compound, the IC50 [4, 10] was 6.58 µM, the IC50 [4, 11] was < 15 µM and the “selective AMPA receptor antagonism (in words)” value [5, 12] was “selective AMPA receptor antagonists”. For the same compound, the IC50 [5, 13] was 9 ± 2.8 µM and the IC50 ([6]; Table III, racemic) was 100 µM.
With O=C(O)[C@@H]1C[C@H]2C[C@@H](CCSc3nnn[nH]3)CC[C@H]2CN1 (racemic) [Compound 9, (3SR,4aRS,6SR,8aRS)-6-[3-(1(2)H-Tetrazole-5-yl)-3-thiaprop-1-yl]decahydroisoquinoline-3-carboxylic Acid] the “IC50 KA, antagonism” value ([1]; Table III, racemic) was > 100 µM, the “IC50 KA, receptor binding” value ([2]; Table I, racemic) was > 100 µM and the IC50 ([3]; Table I, racemic) was > 100 µM. For the same compound, the IC50 [4, 10] was 56.2 ± 4.6 µM, the IC50 [5, 13] was 32.2 ± 1.7 µM and the IC50 ([6]; Table III, racemic) was > 100 µM.
With O=C(O)CC[C@H]1CC[C@H]2CN[C@H](C(=O)O)C[C@H]2C1 (racemic) [Compound 11, (3SR,4aRS,6RS,8aRS)-6-(2-Carboxyethyl)-decahydroisoquinoline-3-carboxylic Acid] the “IC50 KA, antagonism” value ([1]; Table III, racemic) was > 100 µM, the “IC50 KA, receptor binding” value ([2]; Table I, racemic) was > 100 µM and the IC50 ([3]; Table I, racemic) was 43.9 ± 4.1 µM. The IC50 [4, 10] was 27.8 ± 0.6 µM, the IC50 [5, 13] was 42 ± 6.5 µM and the IC50 ([6]; Table III, racemic) was 57 ± 4.4 µM.
